In patent publication US9080214B2, “Genetic markers for efficacy of iloperidone in the treatment of psychotic symptoms” (Vanda Pharmaceuticals, Inc., priority 2007, dated 2015):

Test system: individuals diagnosed with schizophrenia
Assay: Change in PANSS-P subscale by SNP genotype, patients on iloperidone 24 mg/day b.i.d. for 28 days (MMRM)
Format: in vivo, human
From the text: Earlier studies investigated an association between a polymorphism in the CNTF gene and iloperidone efficacy as well as associations between CYP2D6 and KCNQ1 genotypes and changes in QT interval following the administration of iloperidone. The present study involved the genotyping of DNA samples collected from 426 individuals diagnosed with schizophrenia in an attempt to identify additional SNPs associated with iloperidone efficacy. Each sample was genotyped at more than 500,000 SNP loci using the GeneChip® Human Mapping 500K Array Set (Affymetrix, Santa Clara, Calif.) and using assays developed in-house. Approximately half of the participants in the study were administered 24 mg/day of iloperidone, b.i.d., for 28 days. About 25% of the patients were administered ziprasidone. The remaining participants were administered a placebo. Three analyses of the PANSS-T were conducted. 1) A two-step approach where samples were randomly split into 2 groups of iloperidone-treated patients used to discover SNPs associated with changed in PANSS-T (Discovery phase) and a second group to confirm the 100 most significant SNPs (Confirmatory phase). 2) A one-step approach using the Last Observation Carried Forward (LOCF) PANSS-T data of all iloperidone-treated patients. For each SNP, the most parsimonious genetic model (e.g., homozygous for one allele v. all other genotypes [i.e., AA v. AB and BB], heterozygous v. homozygous [i.e., AB v. AA and BB]) was established with respect to iloperidone efficacy using a one-way analysis of variance (ANOVA). 3) A Mixed-effects Model Repeated Measures (MMRM) analysis was subsequently conducted using the best genetic model of each SNP in the MMRM model. MMRM analyses were also conducted with the PANSS subscales PANSS-P, PANSS-N, and PANSS-GP. The SNPs with a statistically significant association in all 3 analyses of PANSS-T, as well as the best of each analysis were considered significant findings and are listed below in Table 1. Results for each of these SNPs with the PANSS-T scales and with the three subscales PANSS-P, PANSS-N, and PANSS-GP are shown in Tables 2, 3, 4, and 5, respectively. […] In the present case of iloperidone efficacy, it is likely that different markers are more specifically associated with one or a few specific clinical symptoms, which is reflected in the improvement measured in separate subscales.

## COc1cc(C(C)=O)ccc1OCCCN1CCC(c2noc3cc(F)ccc23)CC1 [iloperidone, 1-[4-[3-[4-(6-fluoro-1,2-benzisoxazol-3-yl)-1-piperidinyl]propoxy]-3-methoxyphenyl]ethanone]
SNP_A-1819750 (CREG1) genotype A_A
  mean of change in PANSS-P: −5.31
SNP_A-1819750 (CREG1) genotype A_B*
  mean of change in PANSS-P: −4.28
SNP_A-1819750 (CREG1) genotype B_B
  mean of change in PANSS-P: −5.02
SNP_A-1819750 (CREG1) genotype nonAB**
  mean of change in PANSS-P: −5.11
SNP_A-1860353 (RAP1B) genotype A_A**
  mean of change in PANSS-P: −9.20
SNP_A-1860353 (RAP1B) genotype A_B
  mean of change in PANSS-P: −4.42
SNP_A-1860353 (RAP1B) genotype B_B
  mean of change in PANSS-P: −4.28
SNP_A-1860353 (RAP1B) genotype nonAA*
  mean of change in PANSS-P: −4.30
SNP_A-1934663 genotype A_A
  mean of change in PANSS-P: −5.65
SNP_A-1934663 genotype A_B
  mean of change in PANSS-P: −5.78
SNP_A-1934663 genotype B_B*
  mean of change in PANSS-P: −3.40
SNP_A-1934663 genotype nonBB**
  mean of change in PANSS-P: −5.75
SNP_A-1973093 (KIAA0040) genotype A_A
  mean of change in PANSS-P: −5.12
SNP_A-1973093 (KIAA0040) genotype A_B*
  mean of change in PANSS-P: −2.58
SNP_A-1973093 (KIAA0040) genotype B_B
  mean of change in PANSS-P: −5.64
SNP_A-1973093 (KIAA0040) genotype nonAB**
  mean of change in PANSS-P: −5.54
SNP_A-1975928 (SLC2A9) genotype A_A
  mean of change in PANSS-P: −4.60
SNP_A-1975928 (SLC2A9) genotype A_B
  mean of change in PANSS-P: −4.79
SNP_A-1975928 (SLC2A9) genotype B_B*
  mean of change in PANSS-P: 6.19
SNP_A-1975928 (SLC2A9) genotype nonBB**
  mean of change in PANSS-P: −4.65
SNP_A-1987915 (GPR126) genotype A_A
  mean of change in PANSS-P: −3.53
SNP_A-1987915 (GPR126) genotype A_B
  mean of change in PANSS-P: −3.43
SNP_A-1987915 (GPR126) genotype B_B**
  mean of change in PANSS-P: −5.95
SNP_A-1987915 (GPR126) genotype nonBB*
  mean of change in PANSS-P: −3.45
SNP_A-2007721 (LOC58486) genotype A_A
  mean of change in PANSS-P: −1.70
SNP_A-2007721 (LOC58486) genotype A_B**
  mean of change in PANSS-P: −7.48
SNP_A-2007721 (LOC58486) genotype B_B
  mean of change in PANSS-P: −3.42
SNP_A-2007721 (LOC58486) genotype nonAB*
  mean of change in PANSS-P: −3.41
SNP_A-2044214 (HNT) genotype A_A
  mean of change in PANSS-P: −5.77
SNP_A-2044214 (HNT) genotype A_B*
  mean of change in PANSS-P: −2.08
SNP_A-2044214 (HNT) genotype B_B
  mean of change in PANSS-P: −5.64
SNP_A-2044214 (HNT) genotype nonAB**
  mean of change in PANSS-P: −5.73
SNP_A-2048427 (NPAS3) genotype A_A
  mean of change in PANSS-P: −6.16
SNP_A-2048427 (NPAS3) genotype A_B
  mean of change in PANSS-P: −6.26
SNP_A-2048427 (NPAS3) genotype B_B*
  mean of change in PANSS-P: −3.61
SNP_A-2048427 (NPAS3) genotype nonBB**
  mean of change in PANSS-P: −6.24
SNP_A-2070454 (NKX2-5) genotype A_A
  mean of change in PANSS-P: −4.04
SNP_A-2070454 (NKX2-5) genotype A_B
  mean of change in PANSS-P: −3.89
SNP_A-2070454 (NKX2-5) genotype B_B**
  mean of change in PANSS-P: −5.75
SNP_A-2070454 (NKX2-5) genotype nonBB*
  mean of change in PANSS-P: −3.94
SNP_A-2076797 (NUDT9P1) genotype A_A
  mean of change in PANSS-P: −2.57
SNP_A-2076797 (NUDT9P1) genotype A_B**
  mean of change in PANSS-P: −6.55
SNP_A-2076797 (NUDT9P1) genotype B_B
  mean of change in PANSS-P: −2.27
SNP_A-2076797 (NUDT9P1) genotype nonAB*
  mean of change in PANSS-P: −2.42
SNP_A-2103099 (HTR1A) genotype A_A
  mean of change in PANSS-P: −6.05
SNP_A-2103099 (HTR1A) genotype A_B*
  mean of change in PANSS-P: −2.88
SNP_A-2103099 (HTR1A) genotype B_B
  mean of change in PANSS-P: −5.88
SNP_A-2103099 (HTR1A) genotype nonAB**
  mean of change in PANSS-P: −5.95
SNP_A-2120958 genotype A_A
  mean of change in PANSS-P: −4.97
SNP_A-2120958 genotype A_B
  mean of change in PANSS-P: −4.92
SNP_A-2120958 genotype B_B*
  mean of change in PANSS-P: 1.49
SNP_A-2120958 genotype nonBB**
  mean of change in PANSS-P: −4.95
SNP_A-2170121 (C6) genotype A_A
  mean of change in PANSS-P: −3.49
SNP_A-2170121 (C6) genotype A_B**
  mean of change in PANSS-P: −6.98
SNP_A-2170121 (C6) genotype B_B
  mean of change in PANSS-P: −4.26
SNP_A-2170121 (C6) genotype nonAB*
  mean of change in PANSS-P: −3.56
SNP_A-2274533 (LZTS1) genotype A_A**
  mean of change in PANSS-P: −5.34
SNP_A-2274533 (LZTS1) genotype A_B
  mean of change in PANSS-P: −2.64
SNP_A-2274533 (LZTS1) genotype B_B
  mean of change in PANSS-P: −2.63
SNP_A-2274533 (LZTS1) genotype nonAA*
  mean of change in PANSS-P: −2.63
SNP_A-2283283 (XKR4) genotype A_A*
  mean of change in PANSS-P: −1.85
SNP_A-2283283 (XKR4) genotype A_B
  mean of change in PANSS-P: −4.92
SNP_A-2283283 (XKR4) genotype B_B
  mean of change in PANSS-P: −5.41
SNP_A-2283283 (XKR4) genotype nonAA**
  mean of change in PANSS-P: −5.12
SNP_A-2284243 (GRIA4) genotype A_A
  mean of change in PANSS-P: −5.09
SNP_A-2284243 (GRIA4) genotype A_B
  mean of change in PANSS-P: −5.09
SNP_A-2284243 (GRIA4) genotype B_B*
  mean of change in PANSS-P: −2.11
SNP_A-2284243 (GRIA4) genotype nonBB**
  mean of change in PANSS-P: −5.09
SNP_A-4204396 (CDH13) genotype A_A
  mean of change in PANSS-P: −4.76
SNP_A-4204396 (CDH13) genotype A_B
  mean of change in PANSS-P: −4.99
SNP_A-4204396 (CDH13) genotype B_B*
  mean of change in PANSS-P: 1.63
SNP_A-4204396 (CDH13) genotype nonBB**
  mean of change in PANSS-P: −4.85
SNP_A-4212785 (PPP1R3B) genotype A_A*
  mean of change in PANSS-P: 4.95
SNP_A-4212785 (PPP1R3B) genotype A_B
  mean of change in PANSS-P: −4.78
SNP_A-4212785 (PPP1R3B) genotype B_B
  mean of change in PANSS-P: −4.70
SNP_A-4212785 (PPP1R3B) genotype nonAA**
  mean of change in PANSS-P: −4.73
SNP_A-4230979 (ASB3) genotype A_A
  mean of change in PANSS-P: −2.80
SNP_A-4230979 (ASB3) genotype A_B
  mean of change in PANSS-P: −3.63
SNP_A-4230979 (ASB3) genotype B_B**
  mean of change in PANSS-P: −5.84
SNP_A-4230979 (ASB3) genotype nonBB*
  mean of change in PANSS-P: −3.45
SNP_A-4256833 (MLCK) genotype A_A
  mean of change in PANSS-P: −4.59
SNP_A-4256833 (MLCK) genotype A_B*
  mean of change in PANSS-P: −2.78
SNP_A-4256833 (MLCK) genotype B_B
  mean of change in PANSS-P: −5.14
SNP_A-4256833 (MLCK) genotype nonAB**
  mean of change in PANSS-P: −5.10
SNP_A-4258279 (RRM1) genotype A_A
  mean of change in PANSS-P: −5.01
SNP_A-4258279 (RRM1) genotype A_B*
  mean of change in PANSS-P: −0.85
SNP_A-4258279 (RRM1) genotype B_B
  mean of change in PANSS-P: −5.25
SNP_A-4258279 (RRM1) genotype nonAB**
  mean of change in PANSS-P: −5.24
